# Experimental data published in patent US20250034171A1, “IMIDAZOPYRIDINE AMIDES AND RELATED COMPOUNDS FOR USE IN THE TREATMENT OF BACTERIAL INFECTIONS” (priority 2021, published 2025).
# What was measured:
# [1] = test system: Mycobacterium tuberculosis strain H37Rv; test: Test 2: MIC determination against M. tuberculosis, resazurin fluorescence; type: cell-based; conditions: Mycobacterium tuberculosis, H37RV, Test 2, M. tuberculosis H37Rv; for MIC90: read-out: Bacterial activity MIC90; for IC50: read-out: Bacterial activity pMIC50 (converted)
# [2] = Metabolic stability in liver microsomes (intrinsic clearance); type: in vitro ADME; conditions: mouse, microsomes; for half-life at 1 µM: pH 7.4, Metabolic Stability Half life (mouse, min.); for microsomal CLint at 1 µM: pH 7.4, mouse liver microsomes, read-out: Metabolic Stability (liver microsome intrinsic clearance) Clearance (mouse, μl/min./mg protein)
# Method: The test compound was incubated under the generic condition (0.5 mg/ml microsomal protein, 1 mM NADPH, 1 mM MgCl2, and 0.1 M phosphate buffer, pH 7.4, 37° C.) at a defined substrate concentration (typically 1 μM) in liver microsomes of selected species across a time course (typically 0, 5, 10, 20, 40 and 60 minutes) at Cyprotex (Cheshire, UK). The liver microsomes, buffer and test compound will be pre-incubated for 5 minutes. The addition of the co-factor NADPH will initiate the reaction and the reaction was terminated by addition of acetonitrile. The samples were centrifuged prior to analysis by LC-MS/MS analysis. The relative amount of parent compound remaining in the active incubations vs. the control incubations (t=0 mins) for each compound was measured by peak area comparison. The in vitro metabolic half-life (t1/2) was calculated using the slope of the log-linear regression from the percentage parent compound remaining versus time relationship (κ), The in vitro intrinsic clearance (Cl^int) (μl/min/mg microsomal protein) was calculated using the in vitro metabolic half-life, incubation volume and the weight of microsomal protein in the incubation.
Structure (SMILES),MIC90 [1],IC50 [1],half-life at 1 µM [2],microsomal CLint at 1 µM [2]
CCc1nc2ncc(OC)cn2c1C(=O)NCc1ccc(-c2nc3n(n2)CC[C@H](C(F)(F)F)C3)cc1 [Compound 49],0.023 µM,7760 pM,1.8 h,12.9 µL/min/mg
O=C(NCc1ccc(-c2nc3n(n2)CC[C@@H](C(F)(F)F)C3)cc1)c1c(C(F)F)nc2n1CCCC2 [Compound 80],0.2 µM,56200 pM,1.42 h,16.3 µL/min/mg
O=C(NCc1ccc(-c2nc3n(n2)CC[C@H](C(F)(F)F)C3)cc1)c1c(C(F)F)nc2n1CCCC2 [Compound 174],0.25 µM,67600 pM,1.34 h,17.3 µL/min/mg
CCc1nc2ncccn2c1C(=O)NCc1ccc(-c2cc3n(n2)CCC(C(F)(F)F)C3)cc1 (centres unmarked) [Compound 180],0.12 µM,20000 pM,2.35 h,9.9 µL/min/mg
CCc1nc2ncccn2c1C(=O)NCc1ccc(-c2cn3c(n2)CC(C(F)(F)F)CC3)c(F)c1 (centres unmarked) [Compound 186],0.19 µM,40700 pM,> 3 h,< 7.7 µL/min/mg
CCc1nc2n(c1C(=O)NCc1ccc(-c3nc4n(n3)CC(C(F)(F)F)CC4)cc1)CCCC2 (centres unmarked) [Compound 188],0.23 µM,22900 pM,–,–
CCc1nc2ncccn2c1C(=O)NCc1ccc(-c2nc3n(n2)CCC(C(C)(F)F)C3)cc1 (centres unmarked) [Compound 189],0.33 µM,87100 pM,–,–
CCc1nc2ncccn2c1C(=O)NCc1ccc(-c2nc3n(n2)CC[C@H](C(F)(F)F)C3)cc1 [Compound 190],0.19 µM,47900 pM,–,–
CCc1nc2ncc(C(F)(F)F)cn2c1C(=O)NCc1ccc(-c2cn3c(n2)C[C@H](C(F)(F)F)CC3)cc1 [Compound 192],> 5 µM,1.55e+06 pM,–,–
CCc1nc2ncc(C(F)(F)F)cn2c1C(=O)NCc1ccc(-c2cn3c(n2)C[C@@H](C(F)(F)F)CC3)cc1 [Compound 193],> 0.5 µM,> 501000 pM,–,–
CCc1nc2ncc(N)cn2c1C(=O)NCc1ccc(-c2nc3n(n2)CCC(C(F)(F)F)C3)c(F)c1 (centres unmarked) [Compound 197],0.21 µM,69200 pM,–,–
CCc1nc2ncc(N)cn2c1C(=O)NCc1ccc(-c2nc3n(n2)CCC(C(F)(F)F)C3)c(C)c1 (centres unmarked) [Compound 198],0.15 µM,45700 pM,–,–
CCc1nc2ncc(N)cn2c1C(=O)NCc1ccc(-c2nc3n(n2)CCCC3)cc1 [Compound 199],> 0.5 µM,> 501000 pM,–,–
CCc1nc2ncc(N)cn2c1C(=O)NCc1ccc(-c2nc3n(n2)CCC(C(C)(F)F)C3)cc1 (centres unmarked) [Compound 200],0.22 µM,61700 pM,–,–
